The values that follow come from article PMC3953453 (Molecular pharmaceutics, 2012).

Where two headings read alike, the source gives them in different places.

Series [1] deals with β-glucuronidase in intestinal perfusate. Put plainly: biological stability in blank intestinal perfusate. Particulars: for effect on hydrolysis of wogonoside in blank intestinal perfusate: wogonoside 20 μM, 0.1 or 4.4 mM saccharolactone, 20 mM gluconolactone.
Series [2] has as its system perfused rat intestine (duodenum, upper jejunum, terminal ileum and colon). As to the kind of experiment: four-site perfused rat intestinal model. In kind it is in vivo. Particulars: for effect of co-perfusion on absorption and metabolism of wogonoside: 0.1 mM saccharolactone, 20 mM gluconolactone, or antibiotics (100 units penicillin and 0.1mg streptomycin/mL).
For series [3] the following is noted: cited from earlier work.
Series [4] in a line: stability in diluted bile solution. In kind it is in vitro ADME, rat. Particulars: 20 μM, 4-fold diluted bile solution, 37°C.
Series [5] deals with β-glucuronidase in the rat intestine perfusates. As to the kind of experiment: hydrolysis of wogonoside in blank rat intestinal perfusate. As to conditions: for Vmax of wogonoside hydrolysis / Km: blank perfusate; for Km: read-out: Km of wogonoside hydrolysis. In kind it is in vitro ADME.
Series [6] in a line: chemical stability of wogonoside. In kind it is physicochemical.
Series [7] deals with β-glucuronidase of microbial enzymatic extract (rat feces). Put plainly: hydrolysis of wogonoside by microbial enzymatic extract from rat feces. In kind it is in vitro ADME.
Series [8] deals with T1, β-glucuronidase derived from intestinal S9 fraction (Rattus norvegicus, UniProt P06760).
T1 sequence (P06760 23-648): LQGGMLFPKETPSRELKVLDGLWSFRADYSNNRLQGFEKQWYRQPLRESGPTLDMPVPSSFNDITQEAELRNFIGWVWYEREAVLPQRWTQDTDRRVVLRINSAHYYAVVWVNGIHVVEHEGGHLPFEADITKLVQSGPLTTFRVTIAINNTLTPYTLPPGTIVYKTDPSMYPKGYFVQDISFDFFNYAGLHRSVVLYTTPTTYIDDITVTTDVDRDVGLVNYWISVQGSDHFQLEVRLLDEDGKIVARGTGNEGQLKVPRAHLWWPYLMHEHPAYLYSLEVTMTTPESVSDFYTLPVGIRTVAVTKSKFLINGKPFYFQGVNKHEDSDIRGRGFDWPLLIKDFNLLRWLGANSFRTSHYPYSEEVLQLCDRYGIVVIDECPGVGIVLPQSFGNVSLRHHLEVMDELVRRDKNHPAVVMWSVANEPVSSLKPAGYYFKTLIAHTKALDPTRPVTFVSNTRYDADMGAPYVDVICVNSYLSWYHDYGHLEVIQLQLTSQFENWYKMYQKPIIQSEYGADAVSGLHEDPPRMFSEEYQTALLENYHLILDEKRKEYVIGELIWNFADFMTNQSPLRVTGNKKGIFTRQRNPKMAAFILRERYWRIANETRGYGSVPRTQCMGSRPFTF
Put plainly: hydrolysis of wogonoside by rat intestine S9 fractions. Particulars: for Km: read-out: Km of wogonoside hydrolysis. In kind it is in vitro ADME.

For the compound `O=C1O[C@H](CO)[C@@H](O)[C@H](O)[C@H]1O` [gluconolactone, reference compound], in series [1], the “effect on hydrolysis of wogonoside in blank intestinal perfusate” value is “did not inhibit the hydrolysis of wogonoside”. For the same compound, the “effect of co-perfusion on absorption and metabolism of wogonoside” value in series [2] is listed as “did not affect its absorption”.
Turning to `O=C(O)[C@@H](O)[C@H]1OC(=O)[C@H](O)[C@H]1O` [saccharolactone], the “effect on hydrolysis of wogonoside in blank intestinal perfusate” value in series [1] is given as “inhibit the hydrolysis of wogonoside in all perfusate”. Also, the “effect of co-perfusion on absorption and metabolism of wogonoside” value in series [2] is “affected both absorption and metabolism of wogonoside”. In addition, the “effect of co-perfusion on absorption and metabolism of wogonin” value in series [2] (co-perfused with 0.1 mM saccharolactone) is “did not affect the absorption or metabolism of wogonin”.
Turning to `Oc1ccc(/C=C/c2cc(O)cc(O)c2)cc1` [resveratrol], in series [3], the bioavailability (as a rule, dose-corrected exposure relative to a reference, in per cent) was less than 5%.
As to `COc1c(O[C@@H]2O[C@H](C(=O)O)[C@@H](O)[C@H](O)[C@H]2O)cc(O)c2c(=O)cc(-c3ccccc3)oc12` [wogonoside, wogonin-7-O-glucuronide], the stability in bile result in series [4] is “fairly stable”. For the same compound, the maximal hydrolysis rate came out at 1.559 ± 0.008 nmol/min/mg in series [5] (blank jejunal perfusate, pH 4.5, wogonoside 20μM) and 5.195 ± 0.103 nmol/min/mg in series [8] (jejunal S9 fraction, pH 4.5, wogonoside 20μM). In addition, the “Vmax of wogonoside hydrolysis” value in series [5] (Col 60-90min) came out at 0.15 nmol/min/mg; in series [5] (Duo 60-90min), 0.15 nmol/min/mg; in series [5] (Ile 60-90min), 0.85 nmol/min/mg; in series [5] (Ile 120-150min) it was 0.30 nmol/min/mg; in series [5] (Jej 0-30min) it was 1.84 nmol/min/mg; in series [5] (Jej 30-60min), 0.93 nmol/min/mg. Also, the “Vmax of wogonoside hydrolysis” value in series [5] (Jej 60-90min) was 0.47 nmol/min/mg; in series [5] (Jej 90-120min) it was 0.37 nmol/min/mg; in series [5] (Jej 120-150min) it was 0.18 nmol/min/mg; in series [7] (Microflora enzymatic extract) it was 49.64 nmol/min/mg; in series [8] (Duo S9 fraction), 2.06 nmol/min/mg; in series [8] (Ile S9 fraction), 0.26 nmol/min/mg. Also, the “Vmax of wogonoside hydrolysis” value in series [8] (Jeu S9 fraction) stood at 1.68 nmol/min/mg. The Km (usually the concentration of substrate that gives half-maximal velocity) in series [5] (Col 60-90min) was 19.7 µM; in series [5] (Duo 60-90min), 19.9 µM; in series [5] (Ile 60-90min), 6.33 µM; in series [5] (Ile 120-150min), 6.96 µM; in series [5] (Jej 0-30min), 19.8 µM; in series [5] (Jej 30-60min), 15.8 µM. Also, the Km in series [5] (Jej 60-90min) was 18.7 µM; in series [5] (Jej 90-120min) it was 17 µM; in series [5] (Jej 120-150min), 25.5 µM; in series [7] (read-out: Km of wogonoside hydrolysis, Microflora enzymatic extract), 7.7 µM; in series [8] (Duo S9 fraction) it was 30 µM; in series [8] (Ile S9 fraction), 25.7 µM. The Michaelis-Menten constant (Km) in series [8] (Jeu S9 fraction) came to 28.2 µM. Also, the chemical stability entry in series [6] (pH 5.5, pH 6.5 and pH 7.4, 37°C) was “chemically stable”. Moreover, the “recovery (chemical stability)” value in series [6] (pH 5.5, pH 6.5 and pH 7.4, 8 h incubation at 37°C) is on record as 104%-106%. Further, the “stability in blank intestinal perfusate” value in series [1] (blank perfusate of duodenum, jejunum, ileum, colon, 37°C, up to 8 h) is “unstable”. Moreover, the “stability in blank intestinal perfusate after removal of bacteria” value in series [1] (centrifugation (13,000 rpm, 30 min) and aseptic filtration, 20 μM) was “did not improve stability of wogonoside”. In addition, the “metabolite found in perfusate (interconversion)” value in series [2] (5 μM and 20 μM perfused) is recorded as “significant amounts of wogonin were recovered in the wogonoside perfusate”. Moreover, in series [2] (5 μM and 20 μM, four segments), the intestinal absorption entry is recorded as “slower in every intestine regions when compared to wogonin”. In addition, the highest hydrolysis rate in series [7] (fecal extract, pH 5.5, wogonoside 20μM) amounted to 249.211 ± 0.178 nmol/min/mg. Moreover, the “optimal pH of glucuronidase activity” value in series [8] (jejunal S9 fraction, wogonoside 20μM, 37°C, 30 min) came out at 4.5.
